Reference: article PMC8760513, “Mechanistic details of the actinobacterial lyase-catalyzed degradation reaction of 2-hydroxyisobutyryl-CoA” (The Journal of Biological Chemistry, 2021)

Biological target: T1, AcHACL (Actinomycetospora chiangmaiensis, UniProt P0DUV9)
T1 construct: recombinant from E. coli Lemo21(DE3), vector pASG-IBA43, N-terminal His-tag and C-terminal Strep-tag; tag removal not mentioned; homotetramer (dimer of dimers); C-terminal lid residues 556-590
T1 sequence (P0DUV9 1-590): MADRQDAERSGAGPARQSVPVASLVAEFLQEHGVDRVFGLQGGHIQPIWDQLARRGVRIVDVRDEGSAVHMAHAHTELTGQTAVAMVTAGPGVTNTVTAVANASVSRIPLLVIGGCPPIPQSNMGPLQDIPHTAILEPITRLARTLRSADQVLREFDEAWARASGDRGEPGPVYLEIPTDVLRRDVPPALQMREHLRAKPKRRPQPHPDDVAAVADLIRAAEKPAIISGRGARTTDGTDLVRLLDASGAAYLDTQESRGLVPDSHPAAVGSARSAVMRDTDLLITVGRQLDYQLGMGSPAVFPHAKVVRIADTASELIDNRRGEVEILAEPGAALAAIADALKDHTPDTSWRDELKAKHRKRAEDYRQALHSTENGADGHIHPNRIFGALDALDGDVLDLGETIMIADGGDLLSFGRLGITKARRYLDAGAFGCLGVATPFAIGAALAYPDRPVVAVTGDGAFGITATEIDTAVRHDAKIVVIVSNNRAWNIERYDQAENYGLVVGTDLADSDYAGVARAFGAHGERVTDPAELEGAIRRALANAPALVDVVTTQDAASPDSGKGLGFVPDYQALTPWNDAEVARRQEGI
Assay: X-ray crystal structure, […] Å
Type: binding

## CC(C)(COP(=O)(O)OP(=O)(O)OC[C@H]1O[C@@H](n2cnc3c(N)ncnc32)[C@H](O)[C@@H]1OP(=O)(O)O)[C@@H](O)C(=O)NCCC(=O)NCCSC=O [formyl-CoA]
product-bound dimer formed from 2-HIB-CoA in the crystal, density not well defined beyond the pantoyl moiety
  X-ray crystal structure, 1.64 Å: the products formyl-CoA and acetone are bound to the other dimer

## CC(C)=O [acetone]
product-bound dimer, additional density near ThDP interpreted as acetone, hydrogen bond to E493
  X-ray crystal structure, 1.64 Å: additional electron density close to the ThDP cofactor was interpreted as an acetone molecule
